From patent US11896678B2, “Compositions and methods for treatment of peroxisome proliferator-activated receptor gamma (PPARG) activated cancer” (THE BROAD INSTITUTE, INC., priority 2017, dated 2024)
Ends that are not written are not given here.

Experiments:
[1] = target: T1, PPARG ligand-binding domain - NCoR/NCOR1 corepressor peptide (Homo sapiens, UniProt P37231); assay: TR-FRET corepressor assay, NCoR/NCOR1 peptide; format: biochemical; conditions: data not shown
T1 construct: purchased ThermoFisher Scientific
T1 sequence (P37231 238-503 limits assumed): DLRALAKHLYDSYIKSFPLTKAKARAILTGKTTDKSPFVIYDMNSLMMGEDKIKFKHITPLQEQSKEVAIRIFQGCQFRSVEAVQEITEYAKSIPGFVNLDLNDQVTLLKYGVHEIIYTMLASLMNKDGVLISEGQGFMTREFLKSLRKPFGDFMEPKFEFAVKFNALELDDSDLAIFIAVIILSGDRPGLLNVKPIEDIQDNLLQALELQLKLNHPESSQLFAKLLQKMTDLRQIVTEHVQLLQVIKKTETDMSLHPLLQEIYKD
Procedure: (§1) To evaluate inverse-agonism, a TR-FRET PPARG co-repressor assay (ThermoFisher) that measures recruitment of a fluorescent NCOR1 or NCOR2 corepressor peptide to the PPARG ligand-binding domain was used (ThermoFisher).
In addition to the PPARG-NCOR2 interaction assay described above, interactions between PPARG and a peptide from the corepressor NCOR1 were measured.

[2] = target: T2, PPARG ligand-binding domain - SMRT/NCOR2 corepressor peptide (Homo sapiens, UniProt P37231); assay: TR-FRET corepressor assay, SMRT/NCOR2 peptide; format: biochemical
T2 construct: purchased ThermoFisher Scientific
T2 sequence (P37231 238-503 limits assumed): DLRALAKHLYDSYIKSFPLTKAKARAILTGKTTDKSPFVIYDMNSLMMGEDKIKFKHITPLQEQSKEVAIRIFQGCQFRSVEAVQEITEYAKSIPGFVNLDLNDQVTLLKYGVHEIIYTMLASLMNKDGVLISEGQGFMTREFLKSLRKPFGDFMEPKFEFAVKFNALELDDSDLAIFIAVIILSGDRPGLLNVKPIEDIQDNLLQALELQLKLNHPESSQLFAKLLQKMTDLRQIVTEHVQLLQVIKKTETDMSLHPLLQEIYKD
Procedure: as §1
To determine effects on interactions between PPARG and coregulators, PPARG modulators were tested in two TR-FRET biochemical interaction assays for agonism and inverse-agonism. Agonism was quantitated using a coactivator assay, which measured the interaction between the PPARG ligand-binding domain and a fluorescently-labeled peptide from TRAP220/MED1. […] To evaluate inverse-agonism biochemically, ligand-dependent interactions were measured between PPARG ligand-binding domain and corepressor peptides from NCoR/NCOR1 and SMRT/NCOR2.

[3] = system: PPARG-activated bladder cancer cell lines; assay: Proliferation assays in PPARG-activated bladder cancer cell lines; format: cell-based, human; conditions: 100 nM-500 nM
Procedure: A panel of bladder cancer cell lines with PPARG modulators in colony formation assays was then tested (FIG. 10), kinetic proliferation assays (IncuCyte Zoom; Essen Bioscience) using cell lines treated with a single concentration of compound (100 nM-500 nM), and end-point dose-response assays (CellTiter Glo or CyQuant).
This assay was expanded to include an additional 8 representative bladder cancer cell lines, including cell lines with PPARG amplification, RXRA p.S427F mutation, activated gene signature, and control cell lines with low level expression of PPARG and target genes. […] Representative data for the UM-UC-9 cell line are shown in FIG. 6B, and is tabulated for the tested bladder cancer cell lines in Table 1. […] This significant (P<0.01) preferential sensitivity to PPARG inverse-agonists, but not antagonists, is maintained across all of the PPARG-activated cell lines in the panel, including the RXRA p.S427F cell line, HT-1197 (41), the PPARG-amplified cell lines, 5637 and UM-UC-9, and the PPARG activation gene signature cell lines Cal29, UM-UC-1, and RT112/84 (FIG. 12). […] Similar results were obtained with these cell lines in parallel studies using clonogenic assays to quantify colony-forming ability (FIG. 10).
(§2) Proliferation Assays: To enable cell-counting experiments, cell lines were transduced with a lentiviral vector encoding nuclear-targeted GFP, TagGFP2-H2B (Evrogen), and stable pools generated following selection for puromycin resistance. Cell lines were maintained for at least 7 days following selection prior to expansion and seeding into 96- or 384-well plates for further analysis. For kinetic proliferation assays, 96-well plates (n 1% 4 per condition) were imaged and counted every two hours using IncuCyte Zoom (Essen BioScience). Media and compounds were replaced approximately every 3-4 days. For endpoint assays to measure dose-response, cells were plated in 384-well plates, dosed with compound, and upon reaching approximately 70% to 90% confluence in control wells, cells were either counted using fluorescence imaging (Incu-Cyte Zoom) or incubated with CyQuant (Thermo Fisher) at the indicated time and plates were read with a fluorescent plate reader.

UM-UC-9 cells [4] = assay: Direct cell counting dose-response proliferation assay; format: cell-based, human
Procedure: To determine whether PPARG modulators affect the proliferation and/or viability of PPARG-activated bladder cancer cell lines, a direct cell counting-based assay was performed. This assay likely avoids potential artifacts associated with the use of an ATP content-based assay, given that PPAR modulators are known to regulate cellular metabolic activity. […] These IC50 values align well with the calculated IC50s from both the cell-based reporter gene assay (FIG. 8A) and the biochemical corepressor assay (FIG. 8D).
as §2

5637 cells = assay: Proliferation assay in PPARG-amplified 5637 cells; format: cell-based; conditions: Homo sapiens; data not shown
Procedure: To determine if treatment of PPARG-activated bladder cancer cell lines with PPARG modulators impacted viability, a variety of compounds were tested in proliferation assays.

[5] = system: PPARG-activated pancreatic and colorectal cancer cell lines; assay: Kinetic proliferation assay in pancreatic and colorectal cancer cell lines; format: cell-based; conditions: 500 nM
Text: To enable cell-counting, cell lines were transduced with a lentiviral vector encoding nuclear-targeted GFP (TagGFP2-H2B), and stable pools generated following selection for puromycin-resistance. Cell lines were maintained for at least 7 days following selection prior to expansion and seeding into 96-well plates for further analysis. For kinetic proliferation assays, 96-well plates were imaged in phase-contrast and green fluorescence mode every two hours using IncuCyte Zoom (Essen BioScience, Ann Arbor MI). Using IncuCyte software, the number of fluorescent nuclei were counted to monitor quantitative changes in cell number over time. Media and compounds were replaced approximately every 3-4 days.
DMSO treatment was also included as a vehicle control.

UM-UC-9 cells [6] = assay: Kinetic proliferation assay (IncuCyte), percent of DMSO control; format: cell-based, human; conditions: 100 nmol/L; DMSO control at 50% confluency
Text: This assay was expanded to include an additional 8 representative bladder cancer cell lines, including cell lines with PPARG amplification, RXRA p.S427F mutation, activated gene signature, and control cell lines with low level expression of PPARG and target genes. […] Representative data for the UM-UC-9 cell line are shown in FIG. 6B, and is tabulated for the tested bladder cancer cell lines in Table 1. […] Similar results were obtained with these cell lines in parallel studies using clonogenic assays to quantify colony-forming ability (FIG. 10).
as §2, with “Cell lines were maintained for at least 7 days following selection prior to expansion and seeding into 96- or 384-well plates for further analysis.” left out, “Media and compounds were replaced approximately every 3-4 days.” left out

[7] = target: T3, PPARG ligand-binding domain - TRAP220/MED1 coactivator peptide (Homo sapiens, UniProt P37231); assay: TR-FRET coactivator assay, TRAP220/MED1 peptide; format: biochemical
T3 construct: purchased ThermoFisher Scientific
T3 sequence (P37231 238-503 limits assumed): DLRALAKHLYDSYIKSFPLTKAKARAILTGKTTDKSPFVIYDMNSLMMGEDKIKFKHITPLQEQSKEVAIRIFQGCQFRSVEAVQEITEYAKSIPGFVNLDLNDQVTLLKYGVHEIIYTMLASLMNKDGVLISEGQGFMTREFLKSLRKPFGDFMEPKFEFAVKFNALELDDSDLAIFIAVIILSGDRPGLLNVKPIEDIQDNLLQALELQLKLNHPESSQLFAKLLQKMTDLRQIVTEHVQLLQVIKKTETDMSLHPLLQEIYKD

bladder cancer = conditions: rodents; cited from earlier work
[8] = target: Terbium-labeled PPARG ligand binding domain (PPARG-LBD) (Macaca mulatta (Rhesus macaque)) (UniProt O18924); assay: TR-FRET corepressor assay, PPARG-LBD and SMRT/NCOR2 peptide; with agonists rosiglitazone, tesaglitazar and GW9129 (so in the source)
[9] = target: Terbium-labeled PPARG ligand binding domain (PPARG-LBD) (Macaca mulatta (Rhesus macaque)) (UniProt O18924); assay: TR-FRET corepressor assay, PPARG-LBD and SMRT/NCOR2 peptide; with antagonists GW9662 and SR2595
[10] = target: Terbium-labeled PPARG ligand binding domain (PPARG-LBD) (Macaca mulatta (Rhesus macaque)) (UniProt O18924); assay: TR-FRET corepressor assay, PPARG-LBD and SMRT/NCOR2 peptide; with inverse-agonists T0070907 and SR10221

Molecule: CC1=C2C=C(C(=O)N[C@@H](C)c3ccc(C(C)(C)C)cc3)C=CC2N(Cc2ccc(Cl)c(O[C@@H](C)C(=O)O)c2)C1C (stereo partly shown) [SR10221]
- induced signal [1]: less than 2 fold
- effect on PPARG-NCOR2 interaction [2]: induce interaction between PPARG and NCOR2
- sensitivity of cell lines [3]: preferentially sensitive
- effect on cell proliferation compared with DMSO control (UM-UC-9 cells [4]): significantly reduced proliferation
- IC50 (UM-UC-9 cells [4]; Homo sapiens, UM-UC-9, read-out: calculated IC50, proliferation): 16 nM
- IC50 (5637 cells): 20 to 30 nM
- sensitivity of cell lines [5]: preferentially sensitive
- reduction of proliferation relative to control (UM-UC-9 cells [6]): 80%

Molecule: CCCCCOc1cc2c(cc1-c1cc(/C=C/C(=O)O)ccc1O)C(C)(C)CCC2(C)C [UVI3003]
- effect in coactivator assay [7]: minimal effect

Molecule: CCc1ccc(CCOc2ccc(CC3SC(=O)NC3=O)cc2)nc1 (stereo not shown) [pioglitazone]
- carcinogenic effect, bladder cancer (bladder cancer): carcinogenic effect in rodents was also observed

B1: fluorescein-labeled SMRT ID2 corepressor peptide (SMRT/NCOR2) (peptide)
peptide: HASTNMGLEAIIRKALMGKYDQW
modifications: also: fluorescein-labeled, site not given here
- decrease in signal [8]: 50 to 60%
- fold increase in signal [9]: 1.7 fold
- fold increase in signal [10]: 3 to 6 fold
